Laboratory results as given in US20190322632A1, “HRI ACTIVATORS USEFUL FOR THE TREATMENT OF CARDIOMETABOLIC DISEASES” (UNIVERSITAT DE BARCELONA, priority 2016, published 2019).

Experiments:
HRI = target: T1, HRI (Homo sapiens, UniProt Q9BQI3); assay: HRI phosphorylation in human Huh-7 hepatic cells (Western-blot, ratio phosphorylated/total HRI); assay type: cell-based; settings: Huh-7 cells, 24 h, 10 μM; for ratio phosphorylated/total HRI: vs vehicle (DMSO) control, FIG. 1, FIG. 2
T1 construct: endogenous in cells; host or cells: Huh-7 human hepatic cells
Excerpt: Data are presented as the mean±SD (n=4). *p<0.05 vs. control (CT) cells. ^#p<0.05 vs. BTdCPU-treated cells. BTdCPU=1-(benzo[d][1,2,3]thiadiazol-6-yl)-3-(3,4-dichlorophenyl)urea (compound (2) in Chen T. et al., ibid.).
Data are presented as the mean±SD (n=4). ***p<0.001 and *p<0.05 vs. control (CT) cells. ^#p<0.05 vs. BTdCPU-treated cells. Compound I-2 (1-(4-chloro-3-(trifluoromethyl)phenyl)-3-(4-chloro-3-(trifluoromethyl)phenyl)urea is not part of the present invention, but it has been introduced in some figures for comparative purposes.
HRI is activated by autophosphorylation and this has been used for evaluating its activation. In fact, the hyperphosphorylation of HRI is accompanied by an increase of its eIF2α kinase activity (cf. Lu L. et al., “Translation initiation control by heme-regulated eukaryotic initiation factor 2a kinase in erythroid cells under cytoplasmic stresses”, Mol. Cell. Biol., 2001, vol. 21, pp. 7971-7980). Therefore, HRI protein constitutively exists as the native nonphosphorylated 76-kDa species and/or the autoactivated/autophosphorylated 92-kDa, although the relative abundance of each HRI species tends to vary depending on the cells examined (cf. Acharya P. et al., “Hepatic heme-regulated inhibitor (HRI) eukaryotic initiation factor 2a kinase: A protagonist of heme-mediated translational control of CYP2B enzymes and a modulator of basal endoplasmic reticulum stress tone”, Mol. Pharmacol, 2010, vol. 77, pp. 575-592). […] Thus Huh-7 cells were incubated for 24 h with vehicle (DMSO, CT cells) or 10 μM of each of the assayed compound. The effects of these compounds were compared to the well-known HRI activator BTdCPU.

eIF2α = eIF2α phosphorylation in human Huh-7 hepatic cells (Western-blot); assay type: cell-based; settings: Huh-7 cells, 24 h, 10 μM, compared to BTdCPU; FIG. 3, FIG. 4
Excerpt: Data are presented as the mean±SD (n=4). **p<0.01 and *p<0.05 vs. control (CT) cells. ^##p<0.01 and ^#p<0.05 vs. BTdCPU-treated cells.
Data are presented as the mean±SD (n=4). *p<0.05 vs. control (CT) cells.
HRI is a kinase that phosphorylates eukaryotic Initiation Factor 2α (eIF-2a) at its Ser 51 residue to execute protein synthesis regulation and thereby HRI activators cause the phosphorylation of eIF2α as previously described (Chen T, et al., ibid). To confirm whether the new synthesized compounds were able to activate the HRI eIF2α kinase inventors examined the eIF2α phosphorylation caused by these compounds compared to the well-known HRI eIF2α kinase activator BTdCPU. Human Huh-7 hepatocytes were incubated for 24 h with vehicle (DMSO, CT cells) or 10 μM of each of the assayed compounds. eIF2α phosphorylation was determined by Western-blot.

FGF21 = FGF21 expression in hepatocytes (quantitative real-time RT-PCR); assay type: cell-based, human; settings: Huh-7 hepatocytes, 24 h, 10 μM; FIG. 9
Procedure: Human Huh-7 hepatocytes were incubated for 24 h in the absence (Control, CT) or in the presence of compounds (10 μM). Assessment by quantitative real-time RT-PCR of FGF21. Data are presented as the mean±SD (n=4 per group). ***p<0.001 and **p<0.01 vs CT. ^###p<0.001, ^##p<0.01 and ^#p<0.05 vs BTCtFPU. ^††p<0.01 and ^†p<0.05 vs BTdCPU. BTCtFPU=1-(benzo[d][1,2,3]thiadiazol-6-yl)-3-(4-chloro-3-(trifluoromethyl)phenyl)urea (compound (3) in Chen T. et al., ibid.).

T1 sequence (Q9BQI3 whole entry): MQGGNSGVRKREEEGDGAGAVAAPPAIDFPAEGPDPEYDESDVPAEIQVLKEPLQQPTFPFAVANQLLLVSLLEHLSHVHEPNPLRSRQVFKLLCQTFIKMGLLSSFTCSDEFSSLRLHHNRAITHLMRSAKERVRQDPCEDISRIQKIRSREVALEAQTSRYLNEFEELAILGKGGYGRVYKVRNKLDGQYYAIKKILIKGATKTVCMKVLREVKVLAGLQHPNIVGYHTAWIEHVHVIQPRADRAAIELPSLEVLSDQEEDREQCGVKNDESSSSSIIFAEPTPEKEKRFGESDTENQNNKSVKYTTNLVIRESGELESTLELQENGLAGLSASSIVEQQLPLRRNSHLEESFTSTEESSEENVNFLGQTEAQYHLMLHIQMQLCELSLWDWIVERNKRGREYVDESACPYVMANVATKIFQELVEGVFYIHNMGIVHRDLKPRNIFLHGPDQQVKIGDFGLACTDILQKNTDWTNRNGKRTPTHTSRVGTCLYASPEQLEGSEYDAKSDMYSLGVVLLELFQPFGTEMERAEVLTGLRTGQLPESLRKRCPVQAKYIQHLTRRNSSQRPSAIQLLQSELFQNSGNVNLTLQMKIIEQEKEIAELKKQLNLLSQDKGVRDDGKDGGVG

Row | melting point [°C] | total HRI (HRI; FIG. 2) | SMILES | ratio phosphorylated/total HRI (HRI) | eIF2α phosphorylation (eIF2α) | FGF21 expression compared with BTCtFPU (FGF21) | FGF21 expression compared with BTdCPU (FGF21)
1 | 225 |  | O=C(Nc1ccc2nnsc2c1)Nc1cccc(S(F)(F)(F)(F)F)c1Cl [compound I-28, 1-(Benzo[d][1,2,3]thiadiazol-6-yl)-3-(2-chloro-3-(pentafluoro-λ^6-sulfanyl)phenyl)urea] | increased the ratio phosphorylated/total HRI | marked increase in eIF2α phosphorylation, higher than the observed with BTdCPU |  | 
2 | 213 to 214 |  | O=C(Nc1ccc(Cl)c(S(F)(F)(F)(F)F)c1)Nc1ccc2nnsc2c1 [compound I-29, 1-(Benzo[d][1,2,3]thiadiazol-6-yl)-3-(4-chloro-3-(pentafluoro-λ^6-sulfanyl)phenyl)urea] | increased the ratio phosphorylated/total HRI | marked increase in eIF2α phosphorylation, higher than the observed with BTdCPU |  | higher increase in FGF21 expression than that observed for compound BTdCPU
3 | 227 to 228 |  | O=C(Nc1cc(S(F)(F)(F)(F)F)ccc1Cl)Nc1cc(S(F)(F)(F)(F)F)ccc1Cl [compound I-32, 1,3-Bis(2-chloro-5-(pentafluoro-λ^6-sulfanyl)phenyl)urea] |  |  |  | 
4 | 156 to 157 | reduction in total HRI | O=C(Nc1ccc(Cl)c(C(F)(F)F)c1)Nc1cc(S(F)(F)(F)(F)F)ccc1Cl [compound I-33, 1-(4-Chloro-3-(trifluoromethyl)phenyl)-3-(2-chloro-5-(pentafluoro-λ^6-sulfanyl)phenyl)urea] | increase caused by I-33 was also statistically significant | enhanced eIF2α phosphorylation to values similar to those achieved by BTdCPU exposure |  | 
5 | 216 to 217 |  | O=C(Nc1ccc(S(F)(F)(F)(F)F)cc1)Nc1cccc(S(F)(F)(F)(F)F)c1 [compound I-37, 1-(3-(Pentafluoro-λ^6-sulfanyl)phenyl)-3-(4-(pentafluoro-λ^6-sulfanyl)phenyl)urea] |  |  | significant higher increase than compound BTCtFPU | significant higher increase in FGF21 expression than compound BTdCPU
6 | 237 to 238 |  | O=C(Nc1ccc(Cl)c(S(F)(F)(F)(F)F)c1)Nc1ccc(Cl)c(S(F)(F)(F)(F)F)c1 [compound I-38, 1,3-Bis(4-chloro-3-(pentafluoro-λ^6-sulfanyl)phenyl)urea] |  |  | significant higher increase than compound BTCtFPU | significant higher increase in FGF21 expression than compound BTdCPU

Further lines, the compound ahead of its results:

Row | SMILES | melting point [°C] | total HRI (HRI; FIG. 2) | ratio phosphorylated/total HRI (HRI) | eIF2α phosphorylation (eIF2α) | FGF21 expression compared with BTCtFPU (FGF21) | FGF21 expression compared with BTdCPU (FGF21)
7 | O=C(Nc1ccc(S(F)(F)(F)(F)F)cc1)Nc1ccc2nnsc2c1 [compound I-25, 1-(Benzo[d][1,2,3]thiadiazol-6-yl)-3-(4-(pentafluoro-λ^6-sulfanyl)phenyl)urea] | 274 to 275 |  | increased the ratio phosphorylated/total HRI |  |  | 
8 | O=C(Nc1cccc(S(F)(F)(F)(F)F)c1)Nc1ccc2nnsc2c1 [compound I-26, 1-(Benzo[d][1,2,3]thiadiazol-6-yl)-3-(3-(pentafluoro-λ^6-sulfanyl)phenyl)urea] | 229 to 230 |  | increased the ratio phosphorylated/total HRI | marked increase in eIF2α phosphorylation, higher than the observed with BTdCPU | higher expression in FGF21 than BTCtFPU | higher increase in FGF21 expression than that observed for compound BTdCPU
9 | O=C(Nc1ccc2nnsc2c1)Nc1cc(S(F)(F)(F)(F)F)ccc1Cl [compound I-27, 1-(Benzo[d][1,2,3]thiadiazol-6-yl)-3-(2-chloro-5-(pentafluoro-λ^6-sulfanyl)phenyl)urea] | 227 |  | increased the ratio phosphorylated/total HRI | marked increase in eIF2α phosphorylation, higher than the observed with BTdCPU |  | 
10 | O=C(Nc1cccc(S(F)(F)(F)(F)F)c1)Nc1cccc(S(F)(F)(F)(F)F)c1 [compound I-36, 1,3-Bis(3-(pentafluoro-λ^6-sulfanyl)phenyl)urea] |  |  |  |  | significant higher increase than compound BTCtFPU | significant higher increase in FGF21 expression than compound BTdCPU
